Test [1] deals with MDA-MB-468. Nature of the test: Antiproliferative activity against human MDA-MB-468 cells assessed as reduction in cell viability incubated for 48 hrs by MTT assay. The test is classed as functional, cell-based. The settings on record: MDA-MB-468, 48 h. Background: Tetrazolium assays rely on reduction of a dye to a coloured formazan, in cell work by metabolically active cells.

Test [2] has as its system MDA-MB-231. Nature of the test: Antiproliferative activity against human MDA-MB-231 cells assessed as reduction in cell viability incubated for 48 hrs by MTT assay. The test is classed as functional, cell-based. To be noted: MDA-MB-231, 48 h.
The test system of a further test is MCF7. Nature of the test: Antiproliferative activity against human MCF7 cells incubated for 48 hrs by MTT assay. In kind it is functional, cell-based. To be noted: MCF7, 48 h.
Test [3] relates to MDA-MB-231. Nature of the test: Downregulation of total STAT3 expression in human MDA-MB-231 cells at 1 uM incubated for 24 hrs by Western blotting analysis. The test is classed as functional, cell-based.
The target of test [4] is Signal transducer and activator of transcription 3 (Homo sapiens, UniProt P40763). Description: Inhibition of STAT3 activation in human MDA-MB-231 cells assessed as reduction in STAT3 phosphorylation at Tyr705 residue at 1 uM measured after 24 hrs by Western blot analysis relative to control. In kind it is cell-based. (In general: Immunoblotting shows a protein as a band on a membrane.)
Sequence of Signal transducer and activator of transcription 3 (P40763 whole entry): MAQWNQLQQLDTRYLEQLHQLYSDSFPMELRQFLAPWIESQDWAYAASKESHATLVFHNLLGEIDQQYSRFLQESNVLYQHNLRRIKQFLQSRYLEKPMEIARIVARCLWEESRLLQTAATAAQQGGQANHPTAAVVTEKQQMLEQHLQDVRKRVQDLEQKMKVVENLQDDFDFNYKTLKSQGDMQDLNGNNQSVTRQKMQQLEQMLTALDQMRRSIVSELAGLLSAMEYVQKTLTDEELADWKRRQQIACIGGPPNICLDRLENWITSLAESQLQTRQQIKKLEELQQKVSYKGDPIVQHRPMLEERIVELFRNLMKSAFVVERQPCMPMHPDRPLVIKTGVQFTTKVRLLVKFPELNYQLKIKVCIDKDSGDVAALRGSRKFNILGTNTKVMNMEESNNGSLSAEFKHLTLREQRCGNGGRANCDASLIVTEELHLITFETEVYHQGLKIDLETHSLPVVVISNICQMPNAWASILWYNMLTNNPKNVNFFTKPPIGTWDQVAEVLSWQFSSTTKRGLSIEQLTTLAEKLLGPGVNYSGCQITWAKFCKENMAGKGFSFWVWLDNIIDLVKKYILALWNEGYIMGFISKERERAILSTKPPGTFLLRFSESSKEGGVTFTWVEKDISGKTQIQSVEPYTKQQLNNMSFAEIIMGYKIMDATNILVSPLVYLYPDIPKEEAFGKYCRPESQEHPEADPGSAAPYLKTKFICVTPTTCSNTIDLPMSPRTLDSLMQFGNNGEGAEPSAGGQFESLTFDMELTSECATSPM

In test [5] the test system is MDA-MB-231. Nature of the test: Induction of apoptosis in human MDA-MB-231 cells assessed as late apoptotic cells at 3 uM measured after 24 hrs by Annexin V/propidium iodide (PI) double staining based flow cytometric analysis (reference value: 2.22 %). The test is classed as functional. (Flow cytometry measures light scatter and fluorescence of single cells or particles in a stream.)

In test [6] the test system is MDA-MB-468. Nature of the test: Induction of apoptosis in human MDA-MB-468 cells assessed as early apoptotic cells at 3 uM measured after 24 hrs by Annexin V/propidium iodide (PI) double staining based flow cytometric analysis (reference value: 2.94 %). The test is classed as functional.
Test [7] deals with MDA-MB-231. Description: Induction of apoptosis in human MDA-MB-231 cells assessed as early apoptotic cells at 3 uM measured after 24 hrs by Annexin V/propidium iodide (PI) double staining based flow cytometric analysis (reference value: 1.98 %). In kind it is functional.
The test system of test [8] is MDA-MB-468. Description: Induction of apoptosis in human MDA-MB-468 cells assessed as late apoptotic cells at 3 uM measured after 24 hrs by Annexin V/propidium iodide (PI) double staining based flow cytometric analysis (reference value: 2.24 %). The test is classed as functional.

The source made the active and inactive calls. No cut-off for these calls is given here.

As to `O=C1C(=O)c2c(oc3c(=O)n(CCN4CCCCC4)ccc23)-c2ccccc21`, the concentration for half-maximal inhibition (IC50) in the test with MDA-MB-468 [1] was 630 nM; with MDA-MB-231 [2], 880 nM.
`C[C@@H]1CN(CCCN2CCc3c(oc4c3C(=O)C(=O)c3ccccc3-4)C2=O)C[C@H](C)N1`: the IC50 in the test with MDA-MB-468 [1] is 2490 nM; in the test with MDA-MB-231 [2], over 4000 nM.
With `CC1(C)CCC2=C(O1)c1ccccc1C(=O)C2=O` [LAPACHONE], the IC50 in the test with MCF7 is 3990 nM.
On to `C[C@@H]1CN(CCCN2CCc3c(oc4c3C(=O)C(=O)c3ccccc3-4)C2=O)CCO1`, for which the results for the IC50 with MDA-MB-468 [1] and in the test with MDA-MB-231 [2] were 1580 nM and 680 nM, respectively.
In the case of `O=C1C(=O)c2c(oc3c2CCN(CCCN2CCCCC2)C3=O)-c2ccccc21`, the result in the test with MDA-MB-231 [3] was Active. Further, the inhibition in test [4] was 100%. Also, the IC50 with MDA-MB-468 [1] stood at 1200 nM; with MDA-MB-231 [2], 330 nM.
On to `C[C@@H](CO)N1CCc2c(oc3c2C(=O)C(=O)c2ccccc2-3)C1=O`, for which the IC50 in the test on MDA-MB-468 [1] was found to be 1310 nM; with MDA-MB-231 [2] it was 640 nM.
With `O=C1C(=O)c2c(oc3c2CCN([C@H](CO)Cc2ccc(O)cc2)C3=O)-c2ccccc21`, the values for the IC50 in the test on MDA-MB-468 [1] and in the test with MDA-MB-231 [2] were 2620 nM and over 4000 nM, respectively.
For `CN(C)CCn1ccc2c3c(oc2c1=O)-c1ccccc1C(=O)C3=O`, the IC50 is 1210 nM in the test on MDA-MB-468 [1] and 840 nM with MDA-MB-231 [2].
With `O=C1C(=O)c2c(oc3c2CCN([C@H](CO)CCCO)C3=O)-c2ccccc21`, the IC50 in the test on MDA-MB-468 [1] and in the test with MDA-MB-231 [2] was over 4000 nM in each case.
Take `O=CN1CCN(CCCN2CCc3c(oc4c3C(=O)C(=O)c3ccccc3-4)C2=O)CC1`: the IC50 was 3690 nM in the test on MDA-MB-468 [1] and 3270 nM in the test on MDA-MB-231 [2].
For `COC(=O)[C@H](C)N1CCc2c(oc3c2C(=O)C(=O)c2ccccc2-3)C1=O` the same measures were 1210 nM and 680 nM.
Turning to `O=C1C(=O)c2c(oc3c2CCN(CCCO)C3=O)-c2ccccc21`, the IC50 in the test with MDA-MB-468 [1] is 2230 nM; with MDA-MB-231 [2], 1140 nM.
With `COC(=O)[C@H](CC(C)C)N1CCc2c(oc3c2C(=O)C(=O)c2ccccc2-3)C1=O`, the IC50 came out at 2660 nM in the test with MDA-MB-468 [1] and 2440 nM in the test on MDA-MB-231 [2].
On the same counts, the results for `COC(=O)[C@H](CO)N1CCc2c(oc3c2C(=O)C(=O)c2ccccc2-3)C1=O` are 1460 nM and 3780 nM.
Take `COC(=O)[C@H](Cc1ccc(O)cc1)N1CCc2c(oc3c2C(=O)C(=O)c2ccccc2-3)C1=O`: the figures for the 50% inhibitory concentration (IC50) with MDA-MB-468 [1] and in the test with MDA-MB-231 [2] were 2430 nM and 3330 nM, respectively.
Turning to `COC(=O)CCCN1CCc2c(oc3c2C(=O)C(=O)c2ccccc2-3)C1=O`, the figures for the IC50 in the test on MDA-MB-468 [1] and in the test with MDA-MB-231 [2] were 2370 nM and 2510 nM, respectively.
As for `COC(=O)[C@H](Cc1ccccc1)N1CCc2c(oc3c2C(=O)C(=O)c2ccccc2-3)C1=O`, the IC50 with MDA-MB-468 [1] was found to be 2420 nM; with MDA-MB-231 [2], 930 nM.
For `C[C@@H](C(N)=O)N1CCc2c(oc3c2C(=O)C(=O)c2ccccc2-3)C1=O` the same measures were 2890 nM and 3510 nM.
For the molecule `O=C1C(=O)c2c(oc3c2CCN(CCO)C3=O)-c2ccccc21`, the 50% inhibitory concentration (IC50) with MDA-MB-468 [1] amounted to 1430 nM; with MDA-MB-231 [2] it was 750 nM.
For `CCN(CC)CCn1ccc2c3c(oc2c1=O)-c1ccccc1C(=O)C3=O`, the IC50 in the test with MDA-MB-468 [1] was 1180 nM; in the test with MDA-MB-231 [2], 1840 nM.
In the case of `O=C1C(=O)c2c(oc3c2CCN(CCCN2CC4(COC4)C2)C3=O)-c2ccccc21`, the results for the concentration for half-maximal inhibition (IC50) with MDA-MB-468 [1] and in the test on MDA-MB-231 [2] were 1460 nM and 920 nM, respectively.
For `CN1CCN(CCCN2CCc3c(oc4c3C(=O)C(=O)c3ccccc3-4)C2=O)CC1`, the figures for the IC50 with MDA-MB-468 [1] and in the test with MDA-MB-231 [2] were 770 nM and 750 nM, respectively.
For `COC(=O)CCN1CCc2c(oc3c2C(=O)C(=O)c2ccccc2-3)C1=O` the same measures were 2420 nM and 2530 nM.
For `CN(C)CCCN1CCc2c(oc3c2C(=O)C(=O)c2ccccc2-3)C1=O` the same measures were 1430 nM and 740 nM.
Consider `CCN(CC)CCCN1CCc2c(oc3c2C(=O)C(=O)c2ccccc2-3)C1=O`, for which, in test [4], the inhibition entry is “Active”. Moreover, the IC50 stood at 1070 nM in the test with MDA-MB-468 [1] and 650 nM with MDA-MB-231 [2].
For `CN(C)CCN1CCc2c(oc3c2C(=O)C(=O)c2ccccc2-3)C1=O` the same measures were “Active”, 1560 nM and 540 nM.
`O=C1C(=O)c2c(oc3c2CCN(CCN2CCOCC2)C3=O)-c2ccccc21`: the IC50 with MDA-MB-468 [1] came to 1960 nM; with MDA-MB-231 [2] it was 1080 nM.
As for `CC(=O)c1cc2c(o1)C(=O)c1ccccc1C2=O` [NAPABUCASIN], the Activity is 6.23% in the test on MDA-MB-231 [5], 8.87% in the test with MDA-MB-468 [6], 3.34% with MDA-MB-231 [7] and 6% with MDA-MB-468 [8]. Besides, the IC50 was 3590 nM in the test with MDA-MB-468 [1] and 3500 nM in the test on MDA-MB-231 [2].
For `O=C1C(=O)c2c(oc3c2CCN(CCCN2CCOCC2)C3=O)-c2ccccc21`, the results for the IC50 with MDA-MB-468 [1] and in the test on MDA-MB-231 [2] were 1240 nM and 740 nM, respectively.
On the same counts, the results for `O=C1C(=O)c2c(oc3c2CCN(CCCn2ccnc2)C3=O)-c2ccccc21` are 2370 nM and 2940 nM.
For `CCN(CC)CCN1CCc2c(oc3c2C(=O)C(=O)c2ccccc2-3)C1=O`, the inhibition result in [4] was “Active”. Further, the IC50 worked out at 1310 nM in the test with MDA-MB-468 [1] and 610 nM in the test on MDA-MB-231 [2].
For `CN1CCN(CCN2CCc3c(oc4c3C(=O)C(=O)c3ccccc3-4)C2=O)CC1`, the IC50 in the test on MDA-MB-468 [1] amounted to 410 nM; with MDA-MB-231 [2], 1300 nM.
For `CNC(=O)[C@H](C)N1CCc2c(oc3c2C(=O)C(=O)c2ccccc2-3)C1=O` the same measures were 1380 nM and 2620 nM.
Consider `COC(=O)CC[C@@H](C(=O)OC)N1CCc2c(oc3c2C(=O)C(=O)c2ccccc2-3)C1=O`, for which the figures for the IC50 in the test on MDA-MB-468 [1] and in the test with MDA-MB-231 [2] were 2370 nM and 3480 nM, respectively.
Regarding `COC(=O)CN1CCc2c(oc3c2C(=O)C(=O)c2ccccc2-3)C1=O`, the IC50 in the test with MDA-MB-468 [1] was determined as 1550 nM; with MDA-MB-231 [2] it was 1500 nM.
Take `O=C1C(=O)c2c(oc3c2CCN(CCCCO)C3=O)-c2ccccc21`: the half-inhibitory concentration (IC50) in the test on MDA-MB-468 [1] was found to be 3070 nM; in the test on MDA-MB-231 [2], 2290 nM.
For `O=C1C(=O)c2c(oc3c2CCN(C2CCC(N4CCOCC4)CC2)C3=O)-c2ccccc21` (stereo not drawn) the same measures were 1290 nM and 1230 nM.
In the case of `CC(C)C[C@@H](CO)N1CCc2c(oc3c2C(=O)C(=O)c2ccccc2-3)C1=O`, the IC50 is 2450 nM in the test on MDA-MB-468 [1] and 2490 nM in the test on MDA-MB-231 [2].
With `C[C@H]1CN(CCCN2CCc3c(oc4c3C(=O)C(=O)c3ccccc3-4)C2=O)CCO1`, the concentration for half-maximal inhibition (IC50) in the test with MDA-MB-468 [1] was determined as 1720 nM; in the test with MDA-MB-231 [2], 800 nM.
Turning to `CNC(=O)[C@H](Cc1ccccc1)N1CCc2c(oc3c2C(=O)C(=O)c2ccccc2-3)C1=O`, the IC50 in the test with MDA-MB-468 [1] turned out to be 2550 nM; in the test with MDA-MB-231 [2], 3070 nM.
For `O=C1C(=O)c2c(oc3c2CCN([C@H](CO)Cc2ccccc2)C3=O)-c2ccccc21`, the IC50 in the test on MDA-MB-468 [1] was found to be 2420 nM; in the test with MDA-MB-231 [2], 930 nM.
On the same counts, the results for `O=C1C(=O)c2c(oc3c2CCN(CCCN2CCCC2)C3=O)-c2ccccc21` are 1330 nM and 910 nM.
On to `O=C1C(=O)c2c(oc3c2CCN(CCC(=O)N2CCOCC2)C3=O)-c2ccccc21`, for which the IC50 was determined as 2240 nM in the test on MDA-MB-468 [1] and 3050 nM in the test on MDA-MB-231 [2].
Turning to `CNC(=O)[C@H](CC(C)C)N1CCc2c(oc3c2C(=O)C(=O)c2ccccc2-3)C1=O`, the IC50 turned out to be 2320 nM in the test with MDA-MB-468 [1] and 1930 nM in the test with MDA-MB-231 [2].
For `O=C1C(=O)c2c(oc3c2CCN(CCC(=O)N2CCCCC2)C3=O)-c2ccccc21`, the IC50 in the test with MDA-MB-468 [1] worked out at 2500 nM; in the test with MDA-MB-231 [2] it was 3690 nM.

By IC50 is commonly meant the concentration at which inhibition is half-maximal. The inhibition is the share of the control response that was lost under treatment.

The values are drawn from ChEMBL document CHEMBL6103591, “Discovery of naphthoquinone-furo-piperidone derivatives as dual targeting agents of STAT3 and NQO1 for the treatment of breast cancer” (Eur J Med Chem, 2025).
